# pIC50: −log10 of the molar value. Like-named read-outs stand apart in the source and are kept apart here.
# What was measured:
# [1] = molecular target: T1, hERG Potassium Ion Channel (Homo sapiens, UniProt Q12809); assay: hERG channel block, automated planar clamp (QPatch), CHO cell line; type: cell-based; conditions: hERG channel in stable CHO cell line
# T1 construct: expressed in transfected cells
# Protocol: (§1) The activity profiles of compounds 17, 23, and 24 were assessed by various in vitro measurements. The minimum inhibitory concentration (MIC), MIC in the presence of normal human serum (NHS), microsome CLint, the % of free compounds following a plasma protein biding (PPB) assay, and the concentration of drug where the human-ether-à-go-go-related gene (hERG gene) channel block is halved (IC50(hERG)) were measured using standard in vitro protocols for compounds 17, 23, and 24. Unless otherwise indicated, measurements (e.g., microsomal clearance) were performed using a standard microsomal stability assay using LC/MS/MS techniques.
# Blockade of the cardiac ion channel coded by the hERG gene can lead to cardiac arrhythmia. […] To determine the viability of inventive compounds as pharmacological agents that would not affect the hERG channel blockade, a standard automated planar clamp method was employed to determine the IC50 for various test compounds on their inhibition of the channel. An electrophysiological assay was prepared to measure the electric current passing through the hERG channel expressed in a stable CHO cell line by applying the planar clamp method. This assay was performed using the automated QPatch platform (Sophion, Denmark) which allows fast and accurate electrophysiological characterization of the hERG ion channel and the determination of IC50 values for the test compounds.
# [2] = test system: Enterobacter cloacae ATCC-222; assay: MIC (50% NHS); type: cell-based; conditions: ATCC222; Enterobacter cloacae ATCC-222, 50% NHS
# [3] = test system: Escherichia coli ATCC-25922; assay: MIC in the presence of normal human serum (50% NHS); type: cell-based; conditions: ATCC25922
# Source text: As used herein, the term “MIC” refers to minimum inhibitory concentrations. Minimum inhibitory concentrations may be determined by broth microdilution according to the Clinical and Laboratory Standards Institute guidelines (see, e.g., […]-A8. Methods for dilution antimicrobial susceptibility tests for bacteria that grow aerobically: approved standard, 8th Ed.; […] One example for measuring minimum inhibitory concentrations may be found in Reck et al., 2012, J. Med. Chem. 55:6916-6933, the disclosure of which is incorporated by reference. Inoculants may be incubated on blood agar plates for 18 to 24 hours. Incubation may occur at a temperature from about 35° C. to about 37° C. […] In serum supplemented experiments, the testing medium (e.g., DMSO solution) and human serum may be mixed. The ratio of testing medium to human serum may be 1:1 (vol:vol). Plates may be read by spectrophotometry at 620 nm. Unless indicated otherwise, all inhibitory concentrations recited in the specification relate to MICs. The MIC tests were based on broth microdilution method in CLSI-M7. […] Solutions of varying concentrations of DMSO were prepared in wells of a v-bottom 96-well plate (Axygen-WIPP02280). A multi-pipette was used to perform serial dilutions as necessary. From well to well, the drug concentrations were 6.4, 3.2, 1.6, 0.8, 0.4, 0.2, 0.1, 0.05, 0.025, 0.0125, 0.00625 and 0 mg/ml in DMSO. For extremely potent antibiotic, the starting concentrations were adjusted accordingly. This was the drug mother plate. Daughter plates were prepared by placing 98 μl of a testing medium into each well of a u-bottom 96-well plate (Costar 3788). An aliquot of each 2 μl solution from each well of the mother plate was then transferred into the corresponding wells of the daughter plate using a multi-pipette work station (CyBi®-SELMA). Testing media were selected based on CLSI-M7, M11 and […]. Cation adjusted Mueller Hinton Broth (CA-MHB-212322) was the testing medium for majority of bacterial species. Brucella medium (BD-211088) supplemented with 5% LHB, 0.5% hemin and 0.1% vitamin K1 (Sigma-95271) was the testing medium for anaerobic bacteria. One day prior to the day of MIC test, bacterial strains were streaked out from -80° C. glycerol stock onto Trypticase Soy Agar (TSA) plates (Brucella blood agar for anaerobic bacteria) and incubated at 37° C. for 20 hours (in anaerobic condition for anaerobic bacteria, e.g., 80% N2, 10% H2 and 10% CO2). Single colonies of bacteria were picked by using an inoculation loop (Greiner-731175) and suspended into 5 ml sterile saline. The turbidity of the suspension was adjusted to 0.10 (Siemens MicroS can turbidity meter), which implies a concentration of colony forming units (“CFU”) of approximately 1.0×10^8 CFU/ml. The bacterial suspension was diluted 100× in testing media. For MIC experiments with NHS, testing medium and human serum (Equitech Bio Inc. BRH-949908) were mixed in the ratio of 1:1. This was used for inoculation of the daughter plates. An aliquot of 100 μl of the bacterial suspension was inoculated into each well of the daughter plates using a multi-pipette. […] The plates were incubated in ambient atmosphere and at 37° C. in an incubator for 20 hours (for anaerobic bacteria in an anaerobic condition as described above for 48 hours). The MIC values were determined and based on the standards of CLSI methods M7-A7, broth microdilution method. […] Test compounds were compared to control antibiotics Penicillin G (Sigma-13752) and levofloxacin (Sigma-28266). […] Additionally, the MIC's of another gyrase inhibitor (“GSK”) with a structure different from the inventive compounds and the antibacterial levofloxin was measured. MIC are given in μg/mL.
# [4] = Microsomal stability assay, human CLint; type: in vitro ADME; parameters: unit not given here; conditions: human liver microsomes, 1 μM, 0.5 mg/ml microsomal protein
# Protocol: as §1
# Test compounds were incubated at 37° C. with liver microsomes pooled from multiple donors at 1 μM in the presence of a NADPH regenerating system at 0.5 mg/ml microsomal protein. Positive of testosterone (a 3A4 substrate), propafenone (a 2D6 substrate), and diclofenac (a 2c9 substrate) were similarly incubated with microsomes in the presence of a NADPH regenerating system. Samples are removed at 0, 5, 10, 20, 30, and 60 minutes of incubation and immediately mixed with cold acetonitrile containing an internal standard (IS). Samples are then analyzed by LC/MS/MS to determine the disappearance of the test compound and are assessed based on the peak area ratios of analyte/IS (no standard curve).
# [5] = test system: Serratia marcescens Bizio ATCC-29021; assay: MIC (50% NHS); type: cell-based; conditions: ATCC29021; Serratia marcescens Bizio ATCC-29021, 50% NHS
# [6] = test system: Enterococcus faecium ATCC-700221; assay: MIC (50% NHS); type: cell-based; conditions: ATCC700221; Enterococcus faecium ATCC-700221, 50% NHS
# [7] = test system: Escherichia coli ATCC-BAA-2340; assay: MIC (50% NHS); type: cell-based; conditions: ATCCBAA2340; Escherichia coli ATCC-BAA-2340, 50% NHS
# [8] = Plasma protein binding (PPB) assay; type: in vitro ADME; conditions: % of free compound
# Protocol: as §1
# [9] = Escherichia coli ATC-25922, 50% normal human serum, Table 5, read-out: MIC (50% NHS)
# [10] = Escherichia coli ATCC-25922, 50% NHS, Table 6, read-out: MIC
# T1 sequence (Q12809 whole entry): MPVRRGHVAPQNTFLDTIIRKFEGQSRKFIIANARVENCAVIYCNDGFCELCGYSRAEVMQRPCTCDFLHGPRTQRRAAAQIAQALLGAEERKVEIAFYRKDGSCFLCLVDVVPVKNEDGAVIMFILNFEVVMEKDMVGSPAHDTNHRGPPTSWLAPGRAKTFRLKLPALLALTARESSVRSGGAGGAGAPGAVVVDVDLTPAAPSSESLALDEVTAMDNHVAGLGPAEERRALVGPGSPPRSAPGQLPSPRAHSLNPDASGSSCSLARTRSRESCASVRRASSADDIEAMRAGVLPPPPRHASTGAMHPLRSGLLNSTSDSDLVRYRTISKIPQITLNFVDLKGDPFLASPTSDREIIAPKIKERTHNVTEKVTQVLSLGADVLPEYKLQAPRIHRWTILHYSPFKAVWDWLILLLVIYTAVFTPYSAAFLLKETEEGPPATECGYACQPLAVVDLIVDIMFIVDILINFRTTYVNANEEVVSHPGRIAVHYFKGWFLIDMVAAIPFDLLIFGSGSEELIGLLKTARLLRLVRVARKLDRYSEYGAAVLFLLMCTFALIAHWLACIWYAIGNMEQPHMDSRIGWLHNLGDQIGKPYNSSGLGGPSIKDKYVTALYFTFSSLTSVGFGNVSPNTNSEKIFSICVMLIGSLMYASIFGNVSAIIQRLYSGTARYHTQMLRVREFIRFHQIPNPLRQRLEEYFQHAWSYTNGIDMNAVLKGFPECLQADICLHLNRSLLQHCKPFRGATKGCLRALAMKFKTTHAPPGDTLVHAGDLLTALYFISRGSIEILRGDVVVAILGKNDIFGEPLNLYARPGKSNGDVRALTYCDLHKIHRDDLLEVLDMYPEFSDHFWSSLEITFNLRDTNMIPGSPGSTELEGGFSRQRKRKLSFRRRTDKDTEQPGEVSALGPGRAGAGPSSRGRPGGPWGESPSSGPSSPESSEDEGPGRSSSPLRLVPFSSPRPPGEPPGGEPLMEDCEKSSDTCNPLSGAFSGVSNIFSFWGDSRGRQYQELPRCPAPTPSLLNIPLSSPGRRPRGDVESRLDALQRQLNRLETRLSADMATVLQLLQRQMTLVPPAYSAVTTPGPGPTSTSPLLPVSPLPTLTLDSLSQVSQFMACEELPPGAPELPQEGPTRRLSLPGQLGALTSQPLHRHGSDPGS
Compound,pIC50 [1],MIC [2],"MIC [3, 9]","MIC [3, 10]",human CLint [4],MIC [5],MIC [6],MIC [7],fraction unbound [8]
"CN1CC2CN(C(=O)Nc3cc(F)cc(F)c3)CC(C1)C2(O)c1ccc(-c2ccc(CN)cc2C#N)cn1 [Compound 24, (1R,5S,9r)-9-(5-(4-(aminomethyl)-2-cyanophenyl)pyridin-2-yl)-N-(3,5-difluorophenyl)-9-hydroxy-7-methyl-3,7-diazabicyclo[3.3.1]nonane-3-carboxamide]",< 4.52,0.5 µg/mL,0.25 µg/mL,1 µg/mL,144,16 µg/mL,4 µg/mL,0.25 µg/mL,0.38
"CN1CC2CN(C(=O)Nc3cc(F)cc(F)c3)CC(C1)C2(O)c1ccc(-c2ccc(CN)cc2C#N)cc1 [Compound 23, (1R,5S,9r)-9-(4′-(aminomethyl)-2′-cyano-[1,1′-biphenyl]-4-yl)-N-(3,5-difluorophenyl)-9-hydroxy-7-methyl-3,7-diazabicyclo[3.3.1]nonane-3-carboxamide]",< 4.52,0.5 µg/mL,0.5 µg/mL,0.5 µg/mL,93,4 µg/mL,1 µg/mL,0.25 µg/mL,0.27
"CNCc1ccc(-c2ccc(C3(O)C4CN(C)CC3CN(C(=O)Nc3cc(F)cc(F)c3)C4)nc2)c(C#N)c1 [Compound 17, (1R,5S,9r)-9-(5-(2-cyano-4-((methylamino)methyl)phenyl)pyridin-2-yl)-N-(3,5-difluorophenyl)-9-hydroxy-7-methyl-3,7-diazabicyclo[3.3.1]nonane-3-carboxamide]",< 4.52,0.45 µg/mL,0.5 µg/mL,0.22 µg/mL,138,3.56 µg/mL,0.89 µg/mL,0.22 µg/mL,0.45

# From patent publication US10654852B2, “Antibiotics and methods of using same” (THE BROAD INSTITUTE, INC., priority 2016, dated 2020)
